“Also recorded” adds a separate entry of the source. Read-outs that look alike come from different tables or passages of the source.

Results on 5 compounds are retold here after paper PMC12261228 (ACS Pharmacology & Translational Science, 2025).

One data set deals with CCRF-CEM. As to the kind of experiment: MTS cytotoxicity assay, 72 h. Type of data set: cell-based. The settings on record: Homo sapiens, CCRF-CEM, 72 h. A general note: Formazan colour is commonly taken as a measure of viable cells.
The subject of the next data set is CEM-DNR. As to the kind of experiment: MTS cytotoxicity assay, 72 h. Type of data set: cell-based. The settings on record: Homo sapiens, read-out: IC50 CEM-DNR.
The test system of another data set is K562. Put plainly: MTS cytotoxicity assay, 72 h. Type of data set: cell-based. The settings on record: Homo sapiens, K562, 72 h, read-out: IC50 K562.
The subject of another data set is K562-TAX. As to the kind of experiment: MTS cytotoxicity assay, 72 h. Type of data set: cell-based. The settings on record: read-out: IC50 K562-TAX.
In a further data set the test system is HCT116. Put plainly: MTS cytotoxicity assay, 72 h. Type of data set: cell-based. The settings on record: Homo sapiens, HCT-116, 72 h, read-out: IC50 HCT116.
Another data set relates to HCT116p53–/–. Put plainly: MTS cytotoxicity assay, 72 h. Type of data set: cell-based. The settings on record: read-out: IC50 HCT116p53–/–.
Another data set deals with U2OS. As to the kind of experiment: MTS cytotoxicity assay, 72 h. Type of data set: cell-based, human. The settings on record: Homo sapiens, U2OS, 72 h; MTS assay, 3-day incubation, mean ± SD; read-out: IC50 U2OS.
The next data set has as its system MRC-5. Put plainly: MTS cytotoxicity assay, 72 h. Particulars: Homo sapiens, MRC5, 72 h, read-out: IC50 MRC-5. Type of data set: cell-based.
The test system of the next data set is BJ. As to the kind of experiment: MTS cytotoxicity assay, 72 h. Type of data set: cell-based. Particulars: Homo sapiens, read-out: IC50 BJ.
For a further data set, the system named is A549. As to the kind of experiment: MTS cytotoxicity assay, 72 h. Type of data set: cell-based. Particulars: Homo sapiens, Fig. S22. The method, then:
Cell suspensions were prepared and diluted according to the particular cell type and the expected target cell density (500 – 4,000 cells/well). The cells (30 μL/well) were seeded to 384-well clear Corning plates by MultiDrop Combi (Thermo Fisher Scientific, USA). After 24 h the cells were treated with tested compounds as well as with vehicle (DMSO) and high controls (2.67 μM of Actinomycin D and 100 μM Mitomycin C) using contact-free acoustic liquid handler ECHO 555 (Labcyte, USA). Compounds were analyzed at a concentration range from 0.012 μM to 50 μM. Treated cells were incubated at 37 °C in a 5% CO2 atmosphere of a humidified incubator for 72 h. At the end of the incubation period, aliquots of the MTS (Promega) solution prepared according to manufacturer's instructions were added to cells (https://worldwide.promega.com/resources/protocols/technical-bulletins/0/celltiter-96-aqueous-nonradioactive-cell-proliferation-assay-protocol/). After 1 – 4 h of the incubation period, the optical density (OD) at 490 nm was measured on a multimode plate reader EnVision (PerkinElmer, USA). The experiments were performed in technical duplicates and at least three biological replicates. […] The assay quality was monitored by determining the Z′-factor for each 384-well plate. The resistance index (RI), representing the reduction in compound activity on resistant cell lines, was calculated as RI = (IC50 of resistant cell lines, CEM-DNR, K562-TAX)/(IC50 of nonresistant counterparts, CCRF-CEM, K562). Similarly, the selectivity index (SI), indicating preferential cytotoxicity toward tumor cell lines, was calculated as SI = (mean IC50 of nontumor cell lines, BJ and MRC5)/(mean IC50 of cancer cell lines without resistant variants, CCRF-CEM, K562, HCT116, HCT116p53–/–, U2OS).

The test system of another data set is HUVEC. As to the kind of experiment: MTS cytotoxicity assay, 72 h. Type of data set: cell-based. Particulars: Homo sapiens, 3-day incubation, mean ± SD.
For data set [1], the system named is microtubules in U2OS cells. As to the kind of experiment: Immunofluorescence of microtubule organization. Type of data set: cell-based, human. The settings on record: 15 h. The procedure: DMSO at appropriate dilution served as control.
Immunofluorescence microscopy on formaldehyde-fixed, Triton X-100 extracted cells (F/Tx) was performed as previously described. Extraction and fixation steps were carried out in a microtubule stabilizing buffer consisting of 0.1 M KMes, 2 mM EGTA, 2 mM MgCl2, 4% polyethylene glycol 6000, pH 6.9. Cells were fixed for 30 min in 3% formaldehyde before extraction for 4 min with 0.5% Triton X-100 at 37 °C. Mouse monoclonal antibody TU-01 (IgG1) directed to α-tubulin , in the form of hybridoma spent culture medium was diluted 1:10. The DyLight 549-conjugated antimouse antibody (Jackson Immunoresearch Laboratories, West Grove, PA, USA) was diluted 1:500. Samples were mounted in MOWIOL 4–88 (Calbiochem, San Diego, CA, USA) supplemented with 4,6-diamidino-2-phenylindole (DAPI; Sigma-Aldrich, St. Louis, MO, USA) and examined with an Olympus AX-70 Provis microscope (Olympus, Hamburg, Germany) equipped with a 60×/1.0 water objective.

For the next data set, the system named is CCRF-CEM lymphoblasts. Put plainly: FACS analysis of cell cycle, apoptosis, mitosis and polyploidy. The settings on record: for Mitosis: phospho-Histone (Ser10); for Apoptosis: sub-G0/G1 DNA content, % of positive cells.
Where [2] appears, read: MTS assay, 3-day incubation, mean ± SD.
Where [3] appears, read: normal fibroblasts, MTS assay, 3-day incubation, mean ± SD.
[4] abbreviates: read-out: IC50 CCRF-CEM, MTS assay, 3-day incubation, mean ± SD of 3 experiments.

Turning to `C#CCCCCCCCCC1=C2C(C)=CC(C)=[N+]2[B-](F)(F)n2c(C)cc(C)c21` [B10], the IC50 in the data set on CCRF-CEM (MTS assay, 3-day incubation, mean ± SD of 3 experiments, read-out: IC50 CCRF-CEM) is over 50000 nM; in the data set on CEM-DNR (daunorubicin-resistant, MTS assay, 3-day incubation, mean ± SD), over 50000 nM; in the data set with K562 (setting [2]), over 50000 nM; with K562-TAX (paclitaxel-resistant, MTS assay, 3-day incubation, mean ± SD), over 50000 nM; in the data set on HCT116 (setting [2]) it was over 50000 nM; with HCT116p53–/– (setting [2]), over 50000 nM. For the same compound, the IC50 in the data set with U2OS, in the data set on MRC-5 (setting [3]), with BJ (setting [3]) and in the data set on A549 was over 50000 nM each time.
`COc1cc2c(c(OC)c1OC)-c1ccc(OC)c(=O)cc1[C@@H](NC(=O)CCC1=C3C(C)=CC(C)=[N+]3[B-](F)(F)n3c(C)cc(C)c31)CC2` [CB1]: the IC50 with CCRF-CEM (setting [4]) stood at 400 ± 18 nM; with CEM-DNR, 2070 ± 212 nM; in the data set with K562, 450 ± 54 nM; in the data set on K562-TAX, 1470 ± 361 nM; in the data set with HCT116 it was 500 ± 32 nM; with HCT116p53–/–, 580 ± 63 nM. For the same compound, the IC50 worked out at 5690 ± 639 nM with MRC-5, 8350 ± 419 nM in the data set on BJ and 670 ± 33 nM in the data set with HUVEC. Further, the “effect on microtubules (in words)” value in data set [1] (10 μM) was “completely disrupted microtubules”. In addition, the “RI (resistance index)” value in the data set with panel of cell lines worked out at 4.16. Besides, the “SI (selectivity index)” value in the data set with panel of cell lines stood at 13.66. For the same compound, the G0/G1 turned out to be 36.69% in the data set on CCRF-CEM lymphoblasts (1×IC50, 24 h) and 50.26% in the data set with CCRF-CEM lymphoblasts (5×IC50, 24 h). The G2/M is reported as 38.6% in the data set on CCRF-CEM lymphoblasts (1×IC50, 24 h) and 48.02% in the data set with CCRF-CEM lymphoblasts (5×IC50, 24 h). The Polyploid cells in the data set on CCRF-CEM lymphoblasts (1×IC50, 24 h) stood at 17.25%; in the data set on CCRF-CEM lymphoblasts (5×IC50, 24 h) it was 19.14%. The S with CCRF-CEM lymphoblasts (1×IC50, 24 h) worked out at 24.71%; with CCRF-CEM lymphoblasts (5×IC50, 24 h) it was 1.72%. For the same compound, the Mitosis with CCRF-CEM lymphoblasts (1×IC50, 24 h) stood at 7.96%; in the data set on CCRF-CEM lymphoblasts (5×IC50, 24 h), 17.85%. Further, the Apoptosis in the data set on CCRF-CEM lymphoblasts (1×IC50, 24 h) stood at 5.32%; in the data set with CCRF-CEM lymphoblasts (5×IC50, 24 h) it was 11.73%.
With `COc1cc2c(c(OC)c1OC)-c1ccc(OC)c(=O)cc1[C@@H](n1cc(CCCC3=C4C(C)=CC(C)=[N+]4[B-](F)(F)n4c(C)cc(C)c43)nn1)CC2` [CB4], the IC50 in the data set on CCRF-CEM (setting [4]) was 20 ± 0.9 nM; with K562, 88 ± 13 nM; in the data set on HCT116 it was 100 ± 4 nM; with HCT116p53–/–, 120 ± 12 nM; in the data set on MRC-5 it was over 50000 nM; in the data set on BJ, over 50000 nM. The compound also had an IC50 in the data set with HUVEC of under 12.2 nM. In [1] (10 μM), the “effect on microtubules (in words)” value is “microtubule remnants were detectable; also recorded: perinuclear bundles were observed; also recorded: disruption of microtubule organization and generation of perinuclear microtubule bundles”. Moreover, the “cytotoxic activity across the cell line panel (in words)” value in the data set with panel of cell lines is “changed only slightly”. The G0/G1 came to 41.19% in the data set on CCRF-CEM lymphoblasts (1×IC50, 24 h) and 5.49% in the data set with CCRF-CEM lymphoblasts (5×IC50, 24 h). The compound further displayed a G2/M in the data set with CCRF-CEM lymphoblasts (1×IC50, 24 h) of 27.75%. Also, the Polyploid cells with CCRF-CEM lymphoblasts (1×IC50, 24 h) came to 19.29%; in the data set with CCRF-CEM lymphoblasts (5×IC50, 24 h), 23.72%. Also, the S in the data set on CCRF-CEM lymphoblasts (1×IC50, 24 h) was 31.06%; with CCRF-CEM lymphoblasts (5×IC50, 24 h), 1.83%. Moreover, the Mitosis with CCRF-CEM lymphoblasts (1×IC50, 24 h) amounted to 2.76%; in the data set on CCRF-CEM lymphoblasts (5×IC50, 24 h), 64.43%. The Apoptosis is 3.04% in the data set with CCRF-CEM lymphoblasts (1×IC50, 24 h) and 12.24% in the data set with CCRF-CEM lymphoblasts (5×IC50, 24 h).
Take `COc1cc(C2=C3C(C)=CC(C)=[N+]3[B-](F)(F)n3c(C)cc(C)c32)ccc1OCc1cn([C@H]2CCc3cc(OC)c(OC)c(OC)c3-c3ccc(OC)c(=O)cc32)nn1` [CB6]: the IC50 in the data set on CCRF-CEM (setting [4]) was 140 ± 10 nM; in the data set on K562, 26 ± 1 nM; with HCT116, 430 ± 32.5 nM; in the data set on HCT116p53–/–, 380 ± 57 nM; in the data set with MRC-5, over 50000 nM; in the data set with BJ, over 50000 nM. For the same compound, the IC50 in the data set on HUVEC was under 12.2 nM. In addition, the “effect on microtubules (in words)” value in data set [1] (10 μM) is “microtubule remnants were detectable”. For the same compound, in the data set with panel of cell lines, the “cytotoxic activity across the cell line panel (in words)” value was “changed only slightly”. Besides, the G0/G1 came out at 12.32% with CCRF-CEM lymphoblasts (1×IC50, 24 h) and 3.72% in the data set with CCRF-CEM lymphoblasts (5×IC50, 24 h). The compound also showed a G2/M with CCRF-CEM lymphoblasts (1×IC50, 24 h) of 55.58%. Further, the Polyploid cells with CCRF-CEM lymphoblasts (1×IC50, 24 h) stood at 23.13%; in the data set on CCRF-CEM lymphoblasts (5×IC50, 24 h), 24.76%. The S in the data set with CCRF-CEM lymphoblasts (1×IC50, 24 h) is 32.1%; in the data set on CCRF-CEM lymphoblasts (5×IC50, 24 h), 1.88%. Besides, the Mitosis worked out at 29.41% with CCRF-CEM lymphoblasts (1×IC50, 24 h) and 61.11% in the data set with CCRF-CEM lymphoblasts (5×IC50, 24 h). Moreover, the Apoptosis in the data set on CCRF-CEM lymphoblasts (1×IC50, 24 h) is 7.55%; with CCRF-CEM lymphoblasts (5×IC50, 24 h), 14.32%.
With `COc1cc2c(c(OC)c1OC)-c1ccc(OC)c(=O)cc1[C@@H](NC(C)=O)CC2` [Col, colchicine, reference compound], in data set [1] (0.1 μM), the “effect on microtubules (in words)” value was “effectively depolymerized microtubules”. In the data set with CCRF-CEM lymphoblasts (1×IC50, 24 h), the G0/G1 amounted to 2.61%, the G2/M was found to be 80.55%, the Polyploid cells is 14.45% and the S came to 16.84%. Also, in the data set on CCRF-CEM lymphoblasts (1×IC50, 24 h), the Mitosis is on record as 58.35% and the Apoptosis is listed as 13.67%. Further, in the data set on CCRF-CEM lymphoblasts (5×IC50, 24 h), the G0/G1 was found to be 4.73%, the G2/M is 70.57%, the Polyploid cells is 14.73% and the S was 24.71%. In the data set with CCRF-CEM lymphoblasts (5×IC50, 24 h), the Mitosis was determined as 64.48% and the Apoptosis was 11.47%. Besides, the “polyploidization in CCRF-CEM cells (in words)” value in the data set with CCRF-CEM lymphoblasts (both 1 × IC50 and 5 × IC50) is given as “induced polyploidization”.
